Measurements as given in the OPERA property sets (Mansouri et al. 2018).

Conditions: for log10 BCF / log10 biotransformation half-life (days): fish

Structure (SMILES) | melting point | boiling point | further results
Ic1cc(I)c(I)cc1I | 254 °C |  | 
O=C1C[C@@H]2OCC=C3CN4CC[C@]56c7ccccc7N1[C@H]5[C@H]2[C@H]3C[C@H]46 | 287 °C |  | 
O=C(CCl)N1CCOCC1 | 37 °C |  | 
Clc1ccc(Cl)c2ccccc12 |  |  | log10 BCF: 3.75; log10 biotransformation half-life (days): 2.37
O=C1c2ccccc2-c2ccc3c4c(ccc1c24)-c1ccccc1C3=O | 385 °C |  | log10 Koc (L/kg): 4.28
OC(CNc1ccccn1)c1ccccc1 (stereo not drawn) | 83.5 °C |  | 
O=c1oc(=O)c2ccccc2c2ccccc12 | 217 °C |  | 
CC(=O)OCC(=O)[C@H]1CC[C@H]2[C@@H]3CC[C@H]4C[C@H](O)CC[C@]4(C)[C@H]3C(=O)C[C@]12C | 176 °C |  | 
CCOC(CN)OCC | -78 °C | 163 °C | 
CCOC(=O)C(Cc1ccccc1)C(=O)OCC |  | 300 °C | 
NCCN1CCOCC1 | 25.6 °C | 205 °C | 
OCC(Cc1ccccc1)c1ccccc1 (stereo not drawn) | 51 °C | 310 °C | 
CC(C)(C)c1cc(O)ccc1O | 128 °C | 273 °C | 
O=Cc1ccc(Oc2ccccc2)cc1 | 24.5 °C |  | 
COc1cc(-c2coc3cc(O)c(OC)c(O)c3c2=O)cc(O)c1OC | 185 °C |  | 
FC(F)(F)C(Cl)Br (stereo not drawn) | -118 °C | 50.2 °C | log10 Henry constant (atm·m³/mol): -1.69; log10 vapour pressure (mmHg): 2.48
Cc1ccc(N=Cc2ccccc2)cc1 | 35 °C | 318 °C | 
OCCC1CCCCN1 (stereo not drawn) | 69 °C | 202 °C | 
ClCC(Cl)C(Cl)(Cl)Cl (stereo not drawn) |  | 180 °C | 
C#CCCCCCCCCCCCCCCCC | 22.5 °C | 313 °C | 
C=CCSC |  | 92 °C | 
CCCC#CCCCC |  | 152 °C | 
CCCCCCCC/C=C\CCCCCCCCCCCC(=O)O | 33.5 °C |  | 
CCC(C)O[N+](=O)[O-] (stereo not drawn) |  | 124 °C | 
COc1ccc(Cc2cnc(N)nc2N)cc1OC | 233 °C |  | 
COC(=O)c1ccccc1[N+](=O)[O-] | -13 °C | 275 °C | 

Structure (SMILES) | melting point | boiling point | further results
O=C(O)c1ccc2c(c1)C(=O)OC2=O | 162 °C | 390 °C | log10 vapour pressure (mmHg): -5.01; ready biodegradability: readily biodegradable
COc1c(OC)c(OC(C)=O)c2c(OC)cccc2c1OC(C)=O | 69.5 °C |  | 
CC(C)(CCC(=O)O)C(=O)O | 84 °C |  | 
O=S(=O)(CCl)c1ccccc1 | 54 °C |  | 
O=C(O)[C@@H](O)[C@H](O)[C@H](O)[C@@H](O)C(=O)O | 126 °C |  | 
OCC1O[C@@H](Oc2ccccc2)[C@H](O)[C@@H](O)[C@H]1O (stereo partly drawn) | 166 °C |  | 
c1ccc2c(c1)OCCOCCOc1ccccc1OCCOCCO2 | 163 °C |  | 
CCOP(=S)(OCC)ON=C(C#N)c1ccccc1 |  |  | log10 biotransformation half-life (days): 0.84
BrCc1ccc2ccccc2c1 | 56 °C |  | 
Clc1ccc(-c2ccccc2Cl)cc1Cl |  |  | log10 Henry constant (atm·m³/mol): -3.8; log10 vapour pressure (mmHg): -3.99
Cc1ccc(S)cc1 | 43 °C | 195 °C | log10 vapour pressure (mmHg): -0.191
CSc1ccccc1N |  | 234 °C | 
Oc1ccc(/N=N/c2ccccc2)cc1 | 155 °C |  | log10 vapour pressure (mmHg): -6.64
COc1cnc(NS(=O)(=O)c2ccc(N)cc2)nc1 | 215 °C |  | 
Cc1cc(O)cc(Br)c1 | 56.5 °C |  | 
OCC(S)CS (stereo not drawn) |  |  | log10 vapour pressure (mmHg): -2.3
O=C1C(=Cc2ccccc2)CCCC1=Cc1ccccc1 | 118 °C |  | 
CCCCC(C(N)=O)n1nc2ccccc2n1 (stereo not drawn) | 102 °C |  | 
CCCC(C)C(C)(C)C (stereo not drawn) |  | 134 °C | log10 vapour pressure (mmHg): 1.06
C=CC(CC)CCC (stereo not drawn) |  | 110 °C | 
OC[C@@H]1CCCNC1 | 61 °C |  | 
COc1ccccc1OC(C)=O | 31.5 °C |  | 
C=CCC(C)C | -154 °C | 53.9 °C | log10 vapour pressure (mmHg): 2.43; ready biodegradability: not readily biodegradable
N#CC#N | -27.9 °C |  | log10 vapour pressure (mmHg): 3.63
O=C(c1ccccc1O)c1ccccc1O | 59.5 °C | 333 °C | 
C/C(=C/c1ccccc1)CC(N)=O | 133 °C |  | 

Structure (SMILES) | melting point | boiling point | further results
O=CNC1CCCCC1 | 39.5 °C | 260 °C | 
CC(=O)[C@@]1(O)CC[C@H]2[C@@H]3C[C@H](C)C4=CC(=O)CC[C@]4(C)[C@H]3CC[C@@]21C | 214 °C |  | 
N#Cc1ccc(OC(F)(F)F)cc1 |  | 192 °C | 
CCOC(=O)C(=O)OCC | -40.6 °C | 186 °C | log10 vapour pressure (mmHg): -0.383; ready biodegradability: readily biodegradable
O=c1ccn([C@H]2CC[C@@H](CO)O2)c(=O)[nH]1 | 128 °C |  | 
CC(C)OC(=O)C1(S(=O)(=O)c2ccc([N+](=O)[O-])cc2)CCCCC1 | 110 °C |  | 
CCCCCCCCCCCCCCCCCC(=O)O | 68.8 °C | 383 °C | log10 vapour pressure (mmHg): -6.14; ready biodegradability: readily biodegradable
COc1cc(-c2ccc(N=C=O)c(OC)c2)ccc1N=C=O | 114 °C |  | 
N#CCCC#N | 54.5 °C | 266 °C | log10 vapour pressure (mmHg): -2.11
C#CCC(C)C | -105 °C | 61.2 °C | 
C=CCCCC | -140 °C | 63.4 °C | log10 Koa: 2.41; log10 vapour pressure (mmHg): 2.26; ready biodegradability: readily biodegradable
ClCCCCCCCl |  | 204 °C | 
COc1nccnc1NS(=O)(=O)c1ccc(N)cc1 | 176 °C |  | 
O=c1occcc1O | 93.8 °C |  | 
CC1CNCCN1 (stereo not drawn) | 62 °C | 153 °C | 
CCCCB(O)O | 95 °C |  | 
OCC(CO)(CO)COCC(CO)(CO)CO | 221 °C |  | ready biodegradability: not readily biodegradable
Nc1ccc(S(=O)(=O)Nc2ccccc2)cc1 | 200 °C |  | 
CC(=O)Nc1ccccc1C | 110 °C | 296 °C | 
C/C=C(/C)c1ccccc1 |  | 195 °C | 
C=CC(C)CCC=C(C)C (stereo not drawn) |  |  | ready biodegradability: readily biodegradable
Clc1cc2oc3ccc(Cl)c(Cl)c3c2cc1Cl | 210 °C |  | log10 Koa: 9.78; log10 vapour pressure (mmHg): -7.74
C=CCc1ccccc1C |  | 182 °C | 
CC(=O)N(C(C)=O)c1ccc(/N=N/c2ccccc2C)cc1C | 75 °C |  | 
CN(C)CCCN1c2ccccc2S(=O)c2ccc(Cl)cc21 (stereo not drawn) | 115 °C |  | 
COc1ccc(Br)cc1OC |  | 254 °C | 

Structure (SMILES) | melting point | boiling point | further results
Cc1c2ccncc2c(C)c2c1[nH]c1ccccc12 | 313 °C |  | 
Cc1ccc(O)c(C)c1 | 24.5 °C | 211 °C | log10 Henry constant (atm·m³/mol): -6.02; log10 vapour pressure (mmHg): -0.991; ready biodegradability: readily biodegradable
CCCCCCCCCCCCCCCCCN | 49 °C | 336 °C | 
O=C(OC(=O)c1ccccc1)c1ccccc1 | 42.5 °C | 360 °C | log10 vapour pressure (mmHg): -3.93
CCc1ccc(N)cc1 | -4.8 °C | 218 °C | log10 vapour pressure (mmHg): -0.844
O=C(O)CC[N+](=O)[O-] | 62 °C |  | 
Brc1ccccn1 |  | 195 °C | log10 vapour pressure (mmHg): -0.114
O=Cc1ccc(Cl)c(Cl)c1 | 44 °C | 248 °C | 
Oc1ccc2c(O)c3ccccc3cc2c1O | 208 °C |  | 
Cc1ccc2c(c1)C(=O)c1ccccc1C2=O | 177 °C |  | 
O=S(=O)(Cc1ccccc1)Cc1ccccc1 | 152 °C |  | 
ClC(Cl)=C(Cl)c1c(Cl)c(Cl)c(Cl)c(Cl)c1Cl |  |  | log10 BCF: 3.91; log10 biotransformation half-life (days): 2.04
CCCC1CCNCC1 |  | 173 °C | 
Cn1cnc2ncnc-2c1N |  |  | log10 vapour pressure (mmHg): -11.8
COC(CC(OC)OC)OC |  | 183 °C | 
O=[N+]([O-])c1ccc(Oc2ccc(C(F)(F)F)cc2Cl)cc1 | 68 °C |  | 
COc1ccc2c(=O)c(C)c(-c3ccccc3)oc2c1CN(C)C | 110 °C |  | 
COc1ccc(C=O)cc1 | 0 °C | 248 °C | log10 vapour pressure (mmHg): -1.48; ready biodegradability: readily biodegradable
O=C1c2ccccc2C(=O)c2c1cc(S(=O)(=O)[O][Na])c(O)c2O |  |  | ready biodegradability: not readily biodegradable
CCCCCCCCS | -49.2 °C | 199 °C | log10 vapour pressure (mmHg): -0.372
CON=C(C)c1cccc(Oc2nc(OC)cc(OC)n2)c1C(=O)OC | 107 °C |  | log10 vapour pressure (mmHg): -6.64
CCCCCCCCCC(=O)OCC | -20 °C | 242 °C | 
Oc1cc(Cl)c(Cl)c(Cl)c1 | 101 °C | 275 °C | log10 Koc (L/kg): 3.56
CN1C(=O)CCS(=O)(=O)C1c1ccc(Cl)cc1 (stereo not drawn) | 116 °C |  | 
CCCCCCCC(C)=O | -7.5 °C | 195 °C | log10 Henry constant (atm·m³/mol): -3.44; log10 vapour pressure (mmHg): -0.205
CC(C)I | -90 °C | 89.5 °C | log10 vapour pressure (mmHg): 1.63

Structure (SMILES) | melting point | boiling point | further results
Oc1cccc(C(F)(F)F)c1 | -1.8 °C | 178 °C | 
N#CCCCCC#N | 1 °C | 295 °C | log10 vapour pressure (mmHg): -3.17; ready biodegradability: readily biodegradable
Oc1ccccc1-c1nnco1 | 112 °C |  | 
c1ccc(-c2ccc3ccccc3c2)cc1 | 104 °C | 346 °C | log10 vapour pressure (mmHg): -4.46
C[N+](C)(C)CCOC(=O)NCCCCCCNC(=O)OCC[N+](C)(C)C.[Br-].[Br-] | 175 °C |  | 
COC1CCC(OC)O1 (stereo not drawn) |  | 146 °C | 
Nc1ccn([C@@H]2O[C@H](COP(=O)(O)O)[C@@H](O)[C@@H]2O)c(=O)n1 | 233 °C |  | 
CCCC(=O)C=Cc1ccc(O)c(O)c1 | 132 °C |  | 
CCCCCCCCCCCCCC1CCCCC1 | 18.5 °C | 346 °C | log10 vapour pressure (mmHg): -5.04
CC(=O)C1=CCCCC1 | 73 °C | 202 °C | 
COc1ccc(C=O)c2ccccc12 | 34.8 °C |  | 
CC(C)(O)c1ccccc1 | 36 °C | 202 °C | 
C[C@]12C[C@H](O)[C@H]3[C@@H](CCC4=CC(=O)CC[C@@]43C)[C@@H]1CC[C@@H]2C(=O)CO | 181 °C |  | 
CC(=O)Nc1cccc(Br)c1 |  |  | log10 Koc (L/kg): 2.01
NS(=O)(=O)c1ccc(N2CCCCS2(=O)=O)cc1 | 181 °C |  | 
CC(C)c1ccc(Br)cc1 | -22.5 °C | 219 °C | 
CCOC(=O)c1ccc(N)cc1 | 92 °C | 310 °C | 
O=c1ccn([C@@H]2O[C@H](CO)[C@@H](O)[C@@H]2O)c(=O)[nH]1 | 165 °C |  | 
NCCc1ccc(O)c(O)c1 | 128 °C |  | 
O=C(S)c1ccccc1 | 24 °C |  | 
CNC(N)=S | 120 °C |  | 
N#Cc1ccccc1O | 98 °C |  | 
CC(C)N1C(=O)c2ccccc2NS1(=O)=O | 138 °C |  | log10 Koc (L/kg): 1.52
Cc1c(O)cc2c(c1C)OC(C)(CCCC(C)CCCC(C)CCCC(C)C)CC2 (stereo not drawn) | -3 °C |  | 
CCc1cccc(C)n1 |  | 160 °C | 
